Measured values published in publication PMC6683298, “Identifying potential novel drugs against Helicobacter pylori by targeting the essential response regulator HsrA” (Scientific Reports, 2019).

Target: T1, HsrA response regulator (HP1043) (Helicobacter pylori, UniProt O25684)
T1 construct: gene HP_1043; N-terminal 6xHis tag, removed with thrombin; 223 residues; symmetric dimer
T1 sequence (O25684 1-223): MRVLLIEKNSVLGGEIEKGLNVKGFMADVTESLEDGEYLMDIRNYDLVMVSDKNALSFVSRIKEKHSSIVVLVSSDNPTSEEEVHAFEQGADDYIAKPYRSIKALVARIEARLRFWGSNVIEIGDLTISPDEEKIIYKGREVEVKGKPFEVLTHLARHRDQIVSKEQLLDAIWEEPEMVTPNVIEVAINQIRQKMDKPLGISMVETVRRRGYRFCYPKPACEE
Experiment: isothermal titration calorimetry
Format: binding
Details: read-out: ITC^a / Kd
Source text: isothermal titration calorimetry on HsrA response regulator (HP1043)

Row | SMILES | Kd [µM]
1 | O=c1cc(-c2ccc(O)cc2)oc2cc(O)cc(O)c12 [apigenin] | 20
2 | O=c1cc(-c2ccccc2)oc2cc(O)cc(O)c12 [chrysin] | 17
3 | COc1ccc([C@@H]2CC(=O)c3c(O)cc(O)cc3O2)cc1O [hesperetin] | 26
4 | O=c1c(O)c(-c2ccc(O)cc2)oc2cc(O)cc(O)c12 [kaempferol] | 33
